Assay [1] deals with T1, Estrogen receptor (Homo sapiens) (UniProt P03372).
T1 sequence (whole entry): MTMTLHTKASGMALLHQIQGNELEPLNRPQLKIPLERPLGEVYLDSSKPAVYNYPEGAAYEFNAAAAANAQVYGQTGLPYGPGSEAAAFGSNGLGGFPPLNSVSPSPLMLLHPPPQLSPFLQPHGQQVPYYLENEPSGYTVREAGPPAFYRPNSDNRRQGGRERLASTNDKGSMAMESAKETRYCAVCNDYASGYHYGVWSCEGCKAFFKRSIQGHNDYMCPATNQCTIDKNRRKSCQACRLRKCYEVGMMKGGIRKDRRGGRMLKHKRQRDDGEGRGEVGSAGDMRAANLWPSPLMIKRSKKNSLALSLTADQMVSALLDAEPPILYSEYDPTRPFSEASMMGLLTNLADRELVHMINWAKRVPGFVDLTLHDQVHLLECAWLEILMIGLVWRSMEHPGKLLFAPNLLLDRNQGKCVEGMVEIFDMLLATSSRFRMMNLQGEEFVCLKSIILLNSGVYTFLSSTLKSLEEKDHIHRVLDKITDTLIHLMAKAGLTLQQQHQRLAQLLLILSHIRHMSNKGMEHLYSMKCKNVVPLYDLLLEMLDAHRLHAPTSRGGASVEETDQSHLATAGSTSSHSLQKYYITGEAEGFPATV
The assay is described as follows: Transactivation of ERalpha in human MCF7-2a cells assessed as luciferase reporter gene expression at 1 uM relative to estradiol. The format is cell-based.

Assay [2] deals with MDA-MB-231. The assay can be described thus: Antiproliferative activity against human MDA-MB-231 cells. The format is functional, cell-based.
Assay [3] has as its system MCF7. The assay is described as follows: Antiproliferative activity against human MCF7 cells. Type of assay: functional, cell-based.
In assay [4] the target is T2, Estrogen receptor (Homo sapiens, UniProt P03372).
T2 sequence (P03372 whole entry): T1 sequence (whole entry)
The assay can be described thus: Transactivation of ERalpha in human MCF7-2a cells assessed as luciferase reporter gene expression. Type of assay: cell-based.

The source made the active and inactive calls. The calls are words filed in the database; no cut-off is given here.

On to `C#CCN1C=NC(c2ccc(OC)cc2Cl)C1c1ccc(OC)cc1Cl` (stereo unspecified), for which the Activity in assay [1] was 13%. The outcome in assay [2] and in assay [3] was inactive.

In the case of `C#CCN1C=NC(c2ccc(O)cc2Cl)C1c1ccc(O)cc1Cl` (stereo unspecified), the outcome in assay [2] and in assay [3] was inactive. Besides, the EC50 in assay [4] worked out at 10 nM.

Source of the values: ChEMBL document CHEMBL1152270, “Cobalt-alkyne complexes with imidazoline ligands as estrogenic carriers: synthesis and pharmacological investigations” (J Med Chem, 2008).
